Measured values as given in patent US6440989B2, “Phenyl-substituted tricyclic inhibitors of farnesyl-protein transferase” (Schering Corporation, priority 1997, dated 2002).

Biological target: T1, partially purified rat brain farnesyl protein transferase (FPT) (Rattus norvegicus, UniProt Q02293+Q04631)
T1 construct: partially purified rat brain farnesyl protein transferase (FPT); from tissue; host or cells: rat brain
Assay: In vitro enzyme assay: inhibition of Ras-CVLS farnesylation by farnesyl protein transferase
Format: biochemical
Description: 1. In vitro enzyme assays: FPT IC50 (inhibition of farnesyl protein transferase, in vitro enzyme assay) are determined by the methods disclosed in WO/10515 or WO 95110516.

| IC50 [nM] | SMILES |
| --- | --- |
| 59 | C=Cc1cnc2c(c1)CCc1cc(C)cc(OC)c1C2C1CCN(C(=O)Cc2cc[n+]([O-])cc2)CC1 (stereo not shown) [Example 27, 4-(3-Ethenyl-6,11-dihydro-10-methoxy-8-methyl-5H-benzo[5,6]cyclohepta[1,2-b]pyridin-11-yl)-1-(4-pyridinylacetyl)piperidine N1-Oxide] |
| 132 | C=Cc1cnc2c(c1)CCc1cc(C)cc(OC)c1C2C1CCN(S(C)(=O)=O)CC1 (stereo not shown) [Example 28, 4-(3-Ethenyl-6,11-dihydro-10-methoxy-8-methyl-5H-benzo[5,6]cyclohepta[1,2-b]pyridin-11-yl)-1-(methylsulfonyl)piperidine] |
| 74 | CCc1cnc2c(c1)CCc1cc(C)cc(OC)c1C2C1CCN(C(=O)Cc2cc[n+]([O-])cc2)CC1 (stereo not shown) [Example 29, 4-(3-Ethyl-6,11-dihydro-10-methoxy-8-methyl-5H-5 benzo[5,6]cyclohepta[1,2-b]pyridin-11-yl)-1-(4-pyridinylacetyl)piperidine, N1-Oxide] |
| 5.4 | Cc1cc(Br)c2c(c1)CCc1cc(Br)cnc1C2=C1CCN(C(=O)Cc2cc[n+]([O-])cc2)CC1 [Example 37, -(3-Bromo-5,6-dihydro-10-bromo-8-methyl-11H-benzo[5,6]cyclohepta[1,2-b]pyridin-11-ylidene)-1-(4-pyridinylacetyl)piperidine N1-Oxide] |
